Assay results taken from a melting point compilation (Tetko et al.; mined from patent text by program, amines drawn as free bases though some values may be those of a salt).

CCOC(=O)c1cccc(OCCCC2CCN(c3ccc(Cl)nn3)CC2)c1 gave a melting point of 105 °C. In the case of Cc1cnc(NC(=O)C2=C(O)c3ccc(F)cc3S(=O)(=O)N2C)s1, the melting point is reported as 233 °C. Work on CN1C(=O)C2(COc3cc4c(cc32)OCO4)c2c(Br)cccc21 (stereo unspecified) yielded a melting point of 155 to 157 °C. With CCOC(=O)c1c(C)nc2c(c1N)c1ccccc1n2Cc1ccc(OC)cc1 the melting point was 138 to 140 °C. For O=S1(=O)OC[C@H]2CCCN21, the melting point was 45 to 46 °C. For CCOC(=O)c1cccc(N2C(=O)C=CC2=O)c1C(=O)OCC, the melting point was 86 to 90 °C. With CCN(CC)C(=O)c1cc(-c2ccccc2)c2ccccc2c1-c1ccccc1 the melting point was 111 to 113 °C. With CCc1cccc(NC(=N)Nc2cccc3ccccc23)c1 the melting point was 96 to 98 °C. Work on Cc1c(NC(=O)CC(C)(C)C)c2c(c3c1C(c1ccc(C(C)C)cc1)CO3)CCC2 (stereo unspecified) yielded a melting point of 201 to 202 °C. Cc1nc2c([nH]1)CCCC2=O gave a melting point of 229 °C. With C#CCSc1ncc(Cl)cn1 the melting point was 66 °C. Work on C[C@@H](NC(=O)c1csc(-c2ccc(C(F)(F)F)cc2)n1)[C@](O)(Cn1cncn1)c1ccc(F)cc1F yielded a melting point of 167 to 168 °C. In the case of O=C(NCC(O)c1ccccc1)C1CCCCC1 (stereo unspecified), the melting point is reported as 118 to 119 °C. In the case of O=C(O)C1CCc2c(c3ccccc3n2C(=O)c2ccc(-c3ccccc3)cc2)C1 (stereo unspecified), the melting point is reported as 212 to 213 °C. Molecule CCC(CC)c1ccc(Cl)c2nc3n(c12)CCCCN3c1ncc(C(N)=O)cc1C has a melting point of 234 to 235 °C. Molecule CCOCc1cc2cc(Br)ccc2oc1=Nc1ccc(OC)cc1 has a melting point of 134 to 135 °C. Molecule CS(=O)(=O)OCCCCc1ccc(OCc2coc(/C=C/c3ccccc3)n2)cc1 has a melting point of 82 to 83 °C. In the case of Cc1c(C)c2c(c(C)c1N)CC(C)(Cc1ccccc1)O2 (stereo unspecified), the melting point is reported as 68 to 69 °C. CCCCCCCCCCCCCCCCCCOC(=O)c1ccccc1I gave a melting point of 35 °C. Molecule COCc1cccc2sc(C(=O)O)cc12 has a melting point of 212 to 214 °C. Molecule NC(=O)c1cnn2c1N(C(=O)CCl)CC=C2c1cccc(C(F)(F)F)c1 has a melting point of 174 to 176 °C. In the case of Cc1nc(-n2ccc(OCc3ccccc3)cc2=O)[nH]c1C(=O)NCc1cccnc1, the melting point is reported as 203 to 204 °C. CCOP(=O)(CCN1CCNc2c1c(=O)c2=O)OCC gave a melting point of 115 to 116 °C. CCOC(=O)Cn1c2c([nH]c(=O)c1=O)CCC1=C2C=C(n2ccc(C(=O)NCc3ccc([N+](=O)[O-])cc3)c2)CC1 showed a melting point of 165 °C. NCCCc1nc2c([nH]1)-c1ccccc1N(C(=O)c1ccc(NC(=O)c3ccccc3-c3ccccc3)cc1)CC2 showed a melting point of 220 to 223 °C. Molecule CCCCCCCOc1ccc(-c2ccc(N=Nc3ccc([N+](=O)[O-])cc3)cc2)cc1 has a melting point of 147 to 148 °C. Cc1cc(Cl)ccc1Oc1ccc(C(=O)C=CC(=O)O)cc1 showed a melting point of 138 to 139 °C. Cn1nc(-c2c(Cl)cccc2Cl)nc1Cc1ccc(Cl)cc1 gave a melting point of 112 to 115 °C. Molecule O=C(O)CCC1=C(n2nc(-c3c(-c4ccccc4)nn4ccccc34)ccc2=O)CCCC1 has a melting point of 184 to 185 °C. With OC1CSC(Oc2ccnc(-c3cccnc3)c2)C(O)C1O (stereo unspecified) the melting point was 197 °C. Molecule O=C(NOCCNc1ccccc1)c1ccc(F)c(F)c1Nc1ccc(I)cc1Cl has a melting point of 158 °C. Molecule CN(C(=O)COc1cc(-c2ccccc2)nc2ccccc12)N1CCOCC1 has a melting point of 189 °C. CC(C)(C)c1ccc2c(Br)c3ccc(C(C)(C)C)cc3c(Br)c2c1 gave a melting point of 150 to 152 °C. For CC(C)(C)OC(=O)C[C@H](NC(=O)c1cccc(NC(=O)Cc2ccc(C(N)=S)cc2)c1)C(=O)N[C@@H](Cc1ccccc1)C(=O)OC(C)(C)C, the melting point was 99 °C. Work on O=C(O)C(CSc1ccccc1)CS(=O)(=O)c1ccc(-c2ccc(Cl)cc2)cc1 (stereo unspecified) yielded a melting point of 158 to 162 °C. O=S(=O)(Nc1ccccc1OCc1ccc2ccccc2n1)c1cccc(C(F)(F)F)c1 showed a melting point of 154 to 155 °C. NC(=O)N(O)Cc1ccc2c(c1)CCN2Cc1ccccc1 gave a melting point of 107 °C. With O=C(O)C1=Cc2c(cc(Cl)c(Cl)c2Cl)OC1C(F)(F)F (stereo unspecified) the melting point was 236 to 239 °C. For O=C(NCc1ccc(Cl)cc1)c1cnc2sc(C#CCCO)cc2c1O, the melting point was 242 to 246 °C. Molecule CCOC(=O)NS(=O)(=O)c1ccc2c(c1)C(=O)CO2 has a melting point of 118 to 119 °C. For O=C(NN=Cc1cccnc1)NN=Cc1cccnc1, the melting point was 202 to 204 °C. COCc1ccc(-c2cn(-c3cc(C(=O)OC)c(NO)cc3C(F)(F)F)cn2)cc1 showed a melting point of 252 to 257 °C. Work on COc1ccc(CCNC(=O)c2ccc(S(=O)(=O)NC(=O)c3ccc(C(=O)NCCO)nc3)cc2)cc1OC yielded a melting point of 201 to 203 °C. In the case of Cc1nc(C)c(CN2CCN(C)CC2)c(-c2ccccc2OCc2ccc(Cl)cc2)n1, the melting point is reported as 110 to 111 °C. Molecule O=C(NN=Cc1ccccc1)c1ccc(O)cc1 has a melting point of 226 °C. In the case of Cc1cc2c3c(c1)c1c(n3C(c3ccccc3)CO2)CCCC1=O (stereo unspecified), the melting point is reported as 171 °C. With COc1ccc(-c2ccc(C(=O)Nc3ccc4cc(CN5C(C)CCCC5C)ccc4c3)cc2)cc1 (stereo unspecified) the melting point was 199 to 200 °C. Cc1cccc(N2CCN(c3ccc(OCc4ccccc4)nn3)CC2)c1 gave a melting point of 159 °C. Molecule CCOC(=O)c1cn(C2CC2)c2nc(Sc3ccc(C)cc3)c(F)cc2c1=O has a melting point of 186 to 187 °C. For CN1C(=O)CN=C(c2ccccc2F)c2cc(NC(=O)N3CCCC3)ccc21, the melting point was 159 to 160 °C. With CCOC(=O)C(Cc1nc2ccccc2n1Cc1ccc([N+](=O)[O-])cc1)C(=O)OCC the melting point was 135 °C. In the case of CC(=O)Nc1nc(CN2CCN(C(c3ccccc3)c3ccc(Cl)cc3)CC2)cs1 (stereo unspecified), the melting point is reported as 140 to 145 °C. In the case of CN1CCC(N(CCCC2CCCO2)S(=O)(=O)c2ccc(Nc3nccc(Nc4ccc(F)cc4)n3)cc2)CC1 (stereo unspecified), the melting point is reported as 189 °C. Cc1cc(-c2cc(C(F)(F)F)nc(-c3cccc(-c4cccc(S(N)(=O)=O)c4)c3)n2)ccc1C(F)(F)F showed a melting point of 205 °C. With Fc1cccc(COc2ccc(Nc3ncnc4sc(C#Cc5nccs5)cc34)cc2Cl)c1 the melting point was 204 °C. For CCOC(=O)C1=C(C)NC2=C(C(=O)OC2)C1c1cccs1 (stereo unspecified), the melting point was 232 °C. With CC(C)(Cc1ccccc1)C(NC(=O)c1ccc(Cl)cc1)Nc1c(Nc2cccnc2Cl)c(=O)c1=O (stereo unspecified) the melting point was 236 to 237 °C. Molecule C#CC1(O)C(C)CC2C3CCC4=CC(=O)CCC4(C)C3CCC21C (stereo unspecified) has a melting point greater than 230 °C. Molecule CCC(=O)Nc1nc(N2CCC(c3c[nH]c4ccc(NC(C)=O)cc34)CC2)cs1 has a melting point of 263 to 267 °C. FC(F)(F)Oc1ccc(Nc2cc(N3CCOCC3)nc(-c3ccccc3)n2)cc1 showed a melting point of 144 to 146 °C. In the case of COc1cc2c(Nc3ccc(Cl)cc3F)ncnc2cc1OCCN(C)c1cc(C)nc(C)c1, the melting point is reported as 208 to 212 °C. With COCCCn1ccc2c3c(c(-c4ccccc4Cl)cc21)C(=O)NC3=O the melting point was 171 to 172 °C. Cc1ccc2nc(-c3ccccc3C#N)ncc2c1 showed a melting point of 174 to 176 °C. O=C(O)C1=NOC2(CCC(C3CCCCC3)CC2)C1 (stereo unspecified) showed a melting point of 139 to 142 °C. With OC(CCN1CCN(c2ccc(F)cc2)CC1)COc1ccccc1 (stereo unspecified) the melting point was 97 to 99 °C. With CN1C(O)=C(C(=O)Nc2ccc(Br)cc2)c2ccsc2S1(=O)=O the melting point was 197 to 199 °C. With CCOC(=O)/C=C(C)/C=C/C=C(\C)C1=Cc2cc(C)ccc2OC1 the melting point was 135 °C. For Nc1ncc(-c2cccc(F)c2)nc1C(=O)Nc1cccnc1, the melting point was 234 to 238 °C. In the case of CC(C)c1cccc(C(C)C)c1NC(=S)NC(C)(C)C(C)(C)C, the melting point is reported as 161 to 162 °C. Work on Cc1ccc(NC(=O)Cc2ccc(OC(C)(C)C(=O)O)cc2)cc1 yielded a melting point of 164 °C. Molecule COc1nc(=O)[nH]cc1C has a melting point of 196 to 199 °C. With O=S(=O)(c1ccccc1)n1cc(CCOC2OC(CO)C(O)CC2O)c2ccccc21 (stereo unspecified) the melting point was 55 to 57 °C. With C=CCc1cnc2c([N+](=O)[O-])cccc2c1Cl the melting point was 64 to 66 °C. Molecule COc1cc(-c2cnc3[nH]cc(C(=O)C(C)(CO)CO)c3n2)cc(OC)c1OC has a melting point of 222 to 223 °C. O=C(O)c1ccc(NC(=O)C(F)(F)F)nc1 showed a melting point greater than 255 °C. Molecule CC(C)(C)OC(=O)Nc1ccc(C#Cc2ccc(F)cc2)cc1NC(=O)CC(=O)c1ccnc(-n2ccnc2)c1 has a melting point of 169 °C. With COc1cc(OC)c(C(=O)C=Cc2ccc(SC)cc2)c(OP(=O)(O)O)c1 the melting point was 63 to 66 °C. With Cc1ccc2ccccc2c1N(C(=O)CO)C1CCOC1=O (stereo unspecified) the melting point was 191 to 195 °C. C#CCOc1cccc(NC(=O)c2ccccc2C)c1 gave a melting point of 93 to 95 °C. O=S(=O)(Nc1ccccc1OCC1CCN(c2ccncc2)CC1)c1ccc2cc(Br)ccc2c1 showed a melting point of 197 to 200 °C. Work on O=[N+]([O-])c1cnc2ccc(F)cc2c1O yielded a melting point of 313 °C. In the case of COc1ccc2c(c1)Cc1c-2[nH]c2ccc(OCc3ccccc3)cc12, the melting point is reported as 189 to 193 °C. With O=C(c1cccc(Br)c1)C(Br)C(Br)c1cc(Br)ccc1[N+](=O)[O-] (stereo unspecified) the melting point was 187 to 188 °C. For Nc1ccc2c(c1)N(C(=O)CCCl)CC2, the melting point was 158 to 159 °C. With O=C(c1ccc(Cl)cc1)c1cc(Cl)cc2c1OCC2C(=O)O (stereo unspecified) the melting point was 161 to 163 °C. Molecule CN1CCN(C2=Nc3ccccc3N3CCc4cccc2c43)CC1 has a melting point of 149 to 151 °C. CC(C)C(NC(=O)Cn1c(-c2ccc(F)cc2)ncc(N)c1=O)C(=O)C(F)(F)F (stereo unspecified) gave a melting point of 200 to 203 °C. With O=c1cc(C(F)(F)F)[nH]c(=O)n1-c1ccc(F)c(F)c1F the melting point was 137 to 138 °C. With CC(c1ccc(CCn2c(=O)[nH]c3cc(-c4ccc(F)cc4)sc3c2=O)cc1)N1CCCC1 (stereo unspecified) the melting point was 260 to 264 °C. In the case of CNC(=O)n1nc(Oc2ccc(C(F)(F)F)cc2[N+](=O)[O-])cc1C, the melting point is reported as 70 to 72 °C. COc1ccc(C2=NN(C3CCN(S(=O)(=O)c4ccccc4OC(F)(F)F)CC3)C(=O)C(C)(C)C2)cc1OC showed a melting point of 143 to 144 °C. Molecule COc1ccc(OC)c(C#N)c1C#N has a melting point of 276 to 280 °C. In the case of Cc1c2n(c3ccccc13)C(=O)N(C(C)c1ncn(C(c3ccccc3)(c3ccccc3)c3ccccc3)c1C)CC2 (stereo unspecified), the melting point is reported as 71 to 76 °C. Cc1ccc(-c2cccc(-c3nc(C(C)C)[nH]c3-c3cccc(C)n3)c2)cc1 gave a melting point of 76 to 79 °C. In the case of O=C1c2cc(Br)ccc2CCC1Cc1cccnc1 (stereo unspecified), the melting point is reported as 63 to 67 °C. Work on CCCCCCCCCCCCCCCCCCOc1ccc(C(=O)C(Sc2nnnn2-c2ccccc2)c2ccc([N+](=O)[O-])cc2)cc1 (stereo unspecified) yielded a melting point of 82 to 95 °C.
